Test results: patent publication US5798375A, “Treatment of arteriosclerosis and xanthoma” (Sankyo Company, Limited, priority 1995, dated 1998)

Assays:
Male Fl b hamsters = test: Example 4: regression of preformed atherosclerosis in hamsters (Oil Red O stained area); type: in vivo; conditions: for Stained Area ORO: aortic arch, 4 weeks, control 1.82 ± 0.44
Method: Synergism of HMG CoA reductase inhibitors and thiazolidinedione insulin sensitizers was examined by another regression model, i.e. the regression of preformed atherosclerosis in hamsters. Male Fl b hamsters (weight about 130 g,) were given a diet containing 0.05% cholesterol for 13 weeks. They were grouped randomly (2-7 animals per group), and then the test samples were administered for 4 weeks while the hamsters were given a normolipidaemic diet. Pravastatin and fluvastatin were mixed with drinking water at the dose of 3 mg/kg and 1.5 mg/kg, respectively, while troglitazone was mixed with the diet at the dose of 30 mg/kg or 100 mg/kg.
In the case of the combination groups, the dosage was 3 mg/kg+30 mg/kg or 3 mg/kg+100 mg/kg for the pravastatin+troglitazone group, and 1.5 mg/kg+30 mg/kg for the fluvastatin+troglitazone group.
Namely, the aortic arch was stained with ORO to prepare en face specimens. The percentage area which was positive to the ORO stain over the whole area was measured to represent the degree of aortic lesion.

[1] = tested on: Male New Zealand white rabbits; test: Example 3: regression of established atherosclerotic lesions in the cholesterol-fed rabbit model; type: in vivo; conditions: for Rate of lesion area, against the control group: figure in parentheses; for Rate of lesion area: thoracic aorta, two months, mean ± standard error, control 29 ± 20
Method: The rabbits were grouped randomly (3-9 animals per group) and the test samples were administered orally for two months, while they were fed with a normolipidaemic diet. […] The results are shown in terms of the percentage of lesion area in the thoracic aorta.

WHHL rabbits [2] = test: Example 2: incidence and degree of xanthoma of the four legs; type: in vivo, Male WHHL rabbits; parameters: Frequency of massive xanthoma: unit not given here
Method: (§1) Each test compound was administered for eight months to the rabbits in the form of an aqueous suspension (0.5% carboxymethylcellulose added). In the control group, a 0.5% carboxymethylcellulose solution only was administered.
The incidence and the degree of xanthoma of the four legs were measured.

WHHL rabbits [3] = test: Example 2: percentage area covered by lesions, aortic arch and whole aorta; type: in vivo, Male WHHL rabbits; parameters: Lesion Area, Aortic Arch, percentage against the control group / Lesion Area, Total Aorta, percentage against the control group: concentration or dose not given beside the values; conditions: oral, eight months
Method: as §1
The values actually measured are represented by the mean value plus or minus standard error. The numbers in parentheses represent the percentage lesion area against the control group.
*p<0.05, **p<0.01; significant difference against the control group under the [Mann-Whitney's U-Test A significant difference (p<0.05) was observed between Groups B and F, between Groups C and E and between Groups D and F at the aortic arch, and between Groups C and E over the total aorta.

[4] = Example 2: serum cholesterol in WHHL rabbits; type: in vivo, Male WHHL rabbits; conditions: Groups C and D (pioglitazone 20 mg/kg; Compound A 10 mg/kg)
Method: as §1

WHHL rabbits [5] = test: Example 2: aortic cholesterol content; type: in vivo, Male WHHL rabbits
Method: as §1
The aortic cholesterol content was measured The tunica media and tunica intima at the aortic arch and at the thoracic and abdominal aorta were peeled away with tweezers and cut into pieces. The pieces were extracted with a 2:1 by volume mixture of chloroform and methanol.
The chloroform phase was separated and evaporated to dryness and the residue was dissolved in isopropanol. The total cholesterol and the free cholesterol were measured by a conventional enzymatic method.
Data are expressed by the mean plus or minus standard error (mg/g tissue). The values in parentheses indicate the percentage against the control. A significant difference against the control group was observed by the unpaired student t-test: […]

WHHL rabbits [6] = test: Example 2: average thickening of intima in aorta; type: in vivo, Male WHHL rabbits; parameters: Average thickening of intima, Aortic Arch, percentage against the control group / Average thickening of intima, Total Aorta, percentage against the control group: concentration or dose not given beside the values
Method: as §1
The values actually measured are represented as the mean value plus or minus a standard error (μm). The numbers in parentheses represent the percentage intimal thickening against the control group. A significant difference was observed between Groups D and F at the aortic arch, and between Groups C and E and between Groups D and F over the total aorta (p<0.05) under the Mann-Whitney's U-Test.
The average thickening of the intima is calculated by the cross-sectional area of the aortic tunica intima one section from the arch and two sections from the thoracic and abdominal portions, divided by the length of the tunica media.

WHHL rabbits [7] = test: Example 1: percent lesion area of the aorta in WHHL rabbits; type: in vivo; conditions: week 32, mean ± standard error, pravastatin 50 mg/kg/day, troglitazone in diet containing 100 mg/kg, * p < 0.05 vs control
Method: (§2) WHHL rabbits [2-3 months of age, the Watanabe heritable hyperlipidemic rabbit described in Biochimica et Biophysica Acta, 960, 294-302 (1988)] were randomly assigned to a control group (7 animals, group A), a group receiving pravastatin alone (5 animals, Group B), a group receiving troglitazone alone (7 animals, Group C), and a group receiving a combination of both active substances (6 animals, Group D). Pravastatin was administered orally by gavage at a dose of 50 mg/kg/day once-daily and troglitazone was given in the diet, containing 100 mg/kg of the substance for 32 weeks. The ingested amount was limited to a daily 120 g per rabbit. Blood was withdrawn from the animal immediately before starting the study and 4, 8, 12, 16, 20, 24, 28 and 32 weeks after starting the study and the total cholesterol levels (mg/dl) were determined for each blood sample. The levels are reported as a percentage (%) of the levels measured immediately before starting the study. The animals were sacrificed and necropsied at week 32 to examine (a) the percent lesion area (%) in the total, thoracic or abdominal portion of the aorta; (b) the stenosis (%) of the coronary arteries and (c) the incidence (%) of xanthoma in the digital joints.
(§3) The values actually measured are represented as an average value±standard error in those Tables.

WHHL rabbits [8] = test: Example 1: incidence of xanthoma in the digital joints of WHHL rabbits; type: in vivo
Method: as §2, §3

[9] = Example 1: plasma total cholesterol in WHHL rabbits; type: in vivo; conditions: pravastatin 50 mg/kg/day oral gavage, troglitazone in diet containing 100 mg/kg
Method: as §2

WHHL rabbits [10] = test: Example 1: stenosis of the coronary arteries in WHHL rabbits; type: in vivo; conditions: week 32
Method: as §2, §3

[11] = pravastatin 3 mg/kg, fluvastatin 1.5 mg/kg, troglitazone 30 mg/kg alone, combinations
[12] = oral, eight months, control 100 (14/14), *p < 0.05, **p < 0.01 vs control

SMILES: CC(C)n1c(/C=C/C(O)CC(O)CC(=O)O)c(-c2ccc(F)cc2)c2ccccc21 (centres unmarked) [Fluvastatin]
- Stained Area, % of Control (Male Fl b hamsters; 1.5 mg/kg): 96%
- Stained Area ORO (Male Fl b hamsters; 1.5 mg/kg in drinking water): 1.74 ± 0.49%
- regression of aortic lesions (Male Fl b hamsters; [11]): no regression of aortic lesions
- Rate of lesion area, against the control group ([1]; 0.08 mg/kg (as printed in Table 9)): 93
- Rate of lesion area, against the control group ([1]; 1.5 mg/kg): 134
- Rate of lesion area ([1]; 0.08 mg/kg (as printed in Table 9) oral): 27 ± 9%
- Rate of lesion area ([1]; 1.5 mg/kg oral): 39 ± 16%

SMILES: CCc1ccc(CCOc2ccc(CC3SC(=O)NC3=O)cc2)nc1 (centres unmarked) [Pioglitazone, 5-{4-[2-(5-ethylpyridin-2-yl)ethoxy]benzyl}-2,4-thiazolidinedione]
- Frequency of massive xanthoma (WHHL rabbits [2]; control 57, *p < 0.05, **p < 0.01 vs control): 68
- incidence of xanthoma (WHHL rabbits [2]; forelegs and hindlegs): slightly less frequent incidence of xanthoma
- Distribution of severity of lesion: (-) no lesions (WHHL rabbits [2]; number of legs, control 0): 2
- Distribution of severity of lesion: (+++) severe lesion (WHHL rabbits [2]; number of legs, control 6): 8
- Distribution of severity of lesion: (++) moderate lesion (WHHL rabbits [2]; number of legs, control 10): 11
- Distribution of severity of lesion: (+) slight lesion (WHHL rabbits [2]; number of legs, control 12): 7
- Incidence of xanthoma, Forelegs (WHHL rabbits [2]; [12]): 100%
- Incidence of xanthoma, Hindlegs (WHHL rabbits [2]; [12]): 86%
- Incidence of xanthoma, Total (WHHL rabbits [2]; oral, eight months, control 100 (28/28), *p < 0.05, **p < 0.01 vs control): 93%
- Lesion Area, Aortic Arch, percentage against the control group (WHHL rabbits [3]; number in parentheses): 88%
- Lesion Area, Total Aorta, percentage against the control group (WHHL rabbits [3]; number in parentheses): 108%
- Lesion Area, Total Aorta (WHHL rabbits [3]; pravastatin 50, pioglitazone 20, Compound A 10 mg/kg, mean ± standard error, *p<0.05, **p<0.01 vs control): 54 ± 8%
- Lesion Area, Aortic Arch (WHHL rabbits [3]; pravastatin 50, pioglitazone 20, Compound A 10 mg/kg, mean ± standard error, control 82 ± 5, *p<0.05, **p<0.01 vs control): 72 ± 10%
- reduction of the serum cholesterol levels [4]: no reduction
- Cholesterol level of Thoracic and Abdominal Aorta, Esterified (WHHL rabbits [5]; mean ± standard error, control 5.3 ± 1.7): 10.5 ± 3.8 mg/g tissue
- Cholesterol Content of Aortic Arch, Esterified (WHHL rabbits [5]; mean ± standard error, control 6.5 ± 1.4, *p < 0.05): 6.6 ± 2.7 mg/g tissue
- Cholesterol level of Thoracic and Abdominal Aorta, Free (WHHL rabbits [5]; mean ± standard error, control 14.8 ± 2.3, *p < 0.05 vs control): 23.4 ± 3.8 mg/g tissue
- Cholesterol level of Thoracic and Abdominal Aorta, Total (WHHL rabbits [5]; mean ± standard error, control 20.1 ± 2.3, *p < 0.05, **p < 0.02 vs control): 33.9 ± 7.3 mg/g tissue
- Cholesterol Content of Aortic Arch, Free (WHHL rabbits [5]; mean ± standard error, control 20.6 ± 2.9): 26.9 ± 2.3 mg/g tissue
- Cholesterol Content of Aortic Arch, Esterified, percentage against the control (WHHL rabbits [5]; number in parentheses): 102%
- Cholesterol Content of Aortic Arch, Free, percentage against the control (WHHL rabbits [5]; number in parentheses): 131%
- Cholesterol Content of Aortic Arch, Total, percentage against the control (WHHL rabbits [5]; number in parentheses): 124%
- Cholesterol level of Thoracic and Abdominal Aorta, Esterified, percentage against the control (WHHL rabbits [5]; number in parentheses): 198%
- Cholesterol level of Thoracic and Abdominal Aorta, Free, percentage against the control (WHHL rabbits [5]; number in parentheses): 158%
- Cholesterol level of Thoracic and Abdominal Aorta, Total, percentage against the control (WHHL rabbits [5]; number in parentheses): 169%
- suppression of intimal thickening (WHHL rabbits [6]; combinations compared with Groups C and D): no suppression of hypertrophy
- Average thickening of intima, Aortic Arch, percentage against the control group (WHHL rabbits [6]; number in parentheses): 103%
- Average thickening of intima, Total Aorta, percentage against the control group (WHHL rabbits [6]; number in parentheses): 115%
- Average thickening of intima in aorta, Total Aorta (WHHL rabbits [6]; oral, eight months, pravastatin 50, pioglitazone 20, Compound A 10 mg/kg, mean ± standard error, control 154 ± 33): 177 ± 26 μm
- Average thickening of intima in aorta, Aortic Arch (WHHL rabbits [6]; oral, eight months, pravastatin 50, pioglitazone 20, Compound A 10 mg/kg, mean ± standard error, control 237 ± 63): 245 ± 37 μm

SMILES: Cc1c(C)c2c(c(C)c1O)CCC(C)(COc1ccc(CC3SC(=O)NC3=O)cc1)O2 (centres unmarked) [Troglitazone, 5-{4-[(6-hydroxy-2,5,7,8-tetramethyl-chroman-2-yl)methoxy]benzyl}-2,4-thiazolidinedione]
- Lesion area, Abdominal aorta (WHHL rabbits [7]; control 29.9 ± 4.4): 27.6 ± 7.0%
- Lesion Area, Total Aorta (WHHL rabbits [7]; control 65.7 ± 3.9): 51.7 ± 7.7%
- Lesion area, Thoracic aorta (WHHL rabbits [7]; control 79.3 ± 5.4): 57.9 ± 9.9%
- Incidence of xanthoma, Foreleg (WHHL rabbits [8]; week 32, control 100 (14/14)): 86%
- Incidence of xanthoma, Hind leg (WHHL rabbits [8]; week 32, control 100 (14/14)): 29%
- Incidence of xanthoma, Total (WHHL rabbits [8]; week 32, control 100 (28/28)): 57%
- total cholesterol level, % of level before starting the study ([9]; week 4): 88%
- total cholesterol level, % of level before starting the study ([9]; week 8): 89%
- total cholesterol level, % of level before starting the study ([9]; week 12): 78%
- total cholesterol level, % of level before starting the study ([9]; week 16): 83%
- total cholesterol level, % of level before starting the study ([9]; week 20): 72%
- total cholesterol level, % of level before starting the study ([9]; week 24): 73%
- total cholesterol level, % of level before starting the study ([9]; week 28): 77%
- total cholesterol level, % of level before starting the study ([9]; week 32): 76%
- Stained Area, % of Control (Male Fl b hamsters; 30 mg/kg): 109%
- Stained Area, % of Control (Male Fl b hamsters; 100 mg/kg): 58%
- Stained Area ORO (Male Fl b hamsters; 30 mg/kg in diet): 1.99 ± 0.40%
- Stained Area ORO (Male Fl b hamsters; 100 mg/kg in diet): 1.05 ± 0.64%
- regression of aortic lesions (Male Fl b hamsters; [11]): no regression of aortic lesions
- regression of aortic lesions (Male Fl b hamsters; troglitazone alone, 100 mg/kg): regression was observed
- Rate of lesion area, against the control group ([1]; 10 mg/kg): 79
- Rate of lesion area ([1]; 10 mg/kg oral): 23 ± 7%
- Coronary stenosis, RCA (right coronary artery) (WHHL rabbits [10]; control 13): 7%
- Coronary stenosis, LAD (left anterior descending artery) (WHHL rabbits [10]; control 24): 11%
- Coronary stenosis, LSP (left septal artery) (WHHL rabbits [10]; control 40): 31%
- Coronary stenosis, LCX (left circumflex artery) (WHHL rabbits [10]; control 47): 39%
- Coronary stenosis, MLC (main left coronary artery) (WHHL rabbits [10]; control 61): 59%
- Coronary stenosis, MRC (main right coronary artery) (WHHL rabbits [10]; control 79): 83%
